Test in all cases: NCI anticancer screen, dose series, 48 h
Assay [1] relates to SK-OV-3.
For assay [2], the system named is SK-MEL-5.
Assay [3] has as its system CCRF-CEM.
Assay [4] concerns MDA-MB-435.
Assay [5] concerns NCI/ADR-RES.
Assay [6] deals with OVCAR-5.
Assay [7] concerns SF-268.
Assay [8] has as its system HOP-62.
Assay [9] relates to MDA-MB-231.
Assay [10] relates to SNB-75.
Assay [11] deals with A498.
The subject of assay [12] is PC-3.
Assay [13] has as its system UO-31.
In assay [14] the test system is SNB-19.
Assay [15] has as its system MOLT-4.
The subject of assay [16] is SR.
Assay [17] concerns NCI-H522.
For assay [18], the system named is RPMI-8226.
For assay [19], the system named is HL-60.
Assay [20] relates to NCI-H460.

This note sets out measurements from ChEMBL document CHEMBL1201862, “PubChem BioAssay data set” (2004).

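Where inhibition never reached the appropriate level, the endpoint shown equals the highest concentration tested. Otherwise, values were interpolated linearly from a five-concentration, 48-hour dose response in 96-well plates. GI50: concentration for 50% inhibition of growth.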 Active and inactive are the calls of the source. No stated cut-off is given here; in the data, active = GI50 up to about 1.1 µM and inactive = higher.

With `CC(=O)O[C@@]12CO[C@@H]1CC(O)[C@@]1(C)C(=O)[C@H](O)C3=C(C)C(O)C[C@@](O)(C(OC(=O)c4ccccc4)C12)C3(C)C` (stereo not given in full), the GI50 is 0.767 µM (active) in [1]; 6.58 µM (inactive) in [2]; 0.454 µM (active) in [3]; 0.18 µM (active) in assay [4]; > 100 µM (inactive) in assay [5]; 3.94 µM (inactive) in assay [6]. In addition, the GI50 is 3.97 µM (inactive) in [7]; 6.05 µM (inactive) in assay [8]; 4.19 µM (inactive) in assay [9]; 0.507 µM (active) in assay [10]; 5.82 µM (inactive) in assay [11]; 0.881 µM (active) in [12]. Further, the GI50 was 46.1 µM (inactive) in assay [13]; 3.3 µM (inactive) in assay [14]; 0.759 µM (active) in [15]; 1.06 µM (active) in [16]; 0.637 µM (active) in [17]; 0.519 µM (active) in assay [18]. Besides, the GI50 in assay [19] was 0.41 µM (active); in [20], 1.02 µM (active).
In the case of `c1nc(N2CC2)c2cnn(C3CCCCO3)c2n1` (stereo not given), the GI50 in assay [1], in [2], in assay [3], in [4], in [5] and in assay [6] was > 100 µM (inactive) each time. Also, the GI50 in assay [7], in assay [8], in [9], in assay [10], in assay [11] and in [12] was > 100 µM (inactive) in each case. The GI50 in assay [13], in assay [14], in assay [15], in assay [16], in assay [17] and in assay [18] was > 100 µM (inactive) each time. Moreover, the GI50 in assay [19] and in assay [20] was > 100 µM (inactive) throughout.
